Each compound was assayed on C. Albicans (assay: Activity against fungi (C. albicans)). Conditions: Table 10.
Type: cell-based
From the text: Table 10 presents results of activity assays for selected compounds against fungi, as exemplified by activity against c. albicans according to assays known in the art.

Compound | Activity against C. Albicans
CNCCNC(CCN)C(=O)CC1C(C(=O)N2CCNCC2)OC(n2ccc(N)nc2=O)C(O)C1O (stereo not drawn) [compound 1] | 1 to 3 µM
CNCC(=O)NC(CCN)C(=O)CC1C(C(=O)N2CCNCC2)OC(n2ccc(NCCCN3CCN(C)CC3)nc2=O)C(O)C1O (stereo not drawn) [compound 2] | 3 to 6 µM
CNCC(=O)NC(CCN)C(=O)NC1C(C(=O)N2CCNCC2)OC(n2ccc(N)nc2=O)C(O)C1O (stereo not drawn) [compound 5] | 1 to 3 µM

— patent publication US6933288B2, “Pyranosyl cytosines: pharmaceutical formulations and methods” (ISIS Pharmaceuticals, Inc., priority 2002, dated 2005)
